From patent US12497394B2, “Fused-cyclic pyrazolone formamide compound and preparation method therefor, pharmaceutical composition and use thereof” (SHANGHAI INSTITUTE OF MATERIA MEDICA, CHINESE ACADEMY OF …, priority 2018, dated 2025) come the findings set out here.

Where “and” joins values, the source holds several entries; their conditions need not be identical. Equal values may be shown once.

Assay [1] has as its target T1, receptor tyrosine kinase AXL (Homo sapiens, UniProt P30530).
T1 construct: 50 μL of AXL kinase domain recombinant protein diluted in reaction buffer was added to start the reaction; made in house; host or cells: insect cells (baculovirus expression system)
T1 sequence (P30530 536-807 limits assumed): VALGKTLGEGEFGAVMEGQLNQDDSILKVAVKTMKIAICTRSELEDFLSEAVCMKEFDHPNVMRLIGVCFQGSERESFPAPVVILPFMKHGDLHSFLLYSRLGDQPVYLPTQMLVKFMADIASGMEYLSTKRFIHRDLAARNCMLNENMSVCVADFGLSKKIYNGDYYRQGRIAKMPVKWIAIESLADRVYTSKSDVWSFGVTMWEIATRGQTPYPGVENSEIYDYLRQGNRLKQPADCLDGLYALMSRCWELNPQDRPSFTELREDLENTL
Briefly: Enzyme activity of receptor tyrosine kinase AXL (ELISA). The note with it: for inhibition at 0.01 µM: 10 nM; for inhibition at 0.01 µM / inhibition at 0.1 µM / inhibition at 1 µM / inhibition at 0.001 µM: read-out: AXL activity Inhibitory rate(%); for inhibition at 0.1 µM: 100 nM; for inhibition at 1 µM: 1000 nM; for AXL activity (in words): at 1000, 100, and 10 nM; for inhibition at 0.001 µM: 1 nM. It counts as biochemical. As for the experimental part: Detection method: Enzyme-linked immunosorbent assay (ELISA)
Tested receptor tyrosine kinase: AXL
The full-wavelength microplate reader for experiment reading was a product of Molecular Device, model: SpectraMax 190; the experiment water was distilled water produced by Sinopharm Group.
Compound preparation: The compounds were centrifuged at 12,000 g for 5 min, and DMSO was added to prepare a 10^−2M stock solution, vortexed evenly and sonicated for 10 min for use, and stored at −40° C. During the test, the compound was diluted from the stock solution to 100 times the tested concentration with DMSO (the DMSO concentration in the system was 1%).
1. […] Discard the liquid from the well. The plate was washed and washed three times with T-PBS (0.1% Tween-20 in potassium-free PBS, 200 μL/well) for 5 minutes each time.
2. 49 μL of ATP solution diluted with reaction buffer (50 mM HEPES pH 7.4, 50 mM MgCl2, 0.5 mM MnCl2, 0.2 mM Na3VO4, 1 mM DTT) was added to each well, and […] of the tested compound was added to each well, and then 50 μL of AXL kinase domain recombinant protein diluted in reaction buffer was added to start the reaction. Two control wells without ATP were added in each experiment. (100 rpm) Reacted in 37° C. shaker for 1 hour. Discard the liquid from the well, and the plate was washed with T-PBS for three times.
3. […] Discard the liquid from the well, and the plate was washed with T-PBS for three times.
4. The horseradish peroxidase-labeled goat anti-mouse second antibody dilution (antibody diluted 1:2000 with BSA 5 mg/mL in T-PBS), 100 μL/well, and reacted in 37° C. shaker for 0.5 hours. Discard the liquid from the well, and the plate was washed with T-PBS for three times.
6. The reaction was quenched with 50 μL/well 2M […], and read at 490 nm using a tunable microplate reader VERSAmax.
The IC50 values were obtained by four-parameter regression analysis using the software supplied with the microplate reader.

Assay [2] has as its system BaF3/TEL-AXL cells. The assay can be described thus: Proliferation of BaF3/TEL-AXL cells. To be noted: two values per compound; for inhibition at 0.001 µM / inhibition at 0.01 µM / inhibition at 0.1 µM: BaF3/TEL-AXL, read-out: BaF3/TEL-AXL proliferation Inhibitory rate (%). Format: cell-based. An excerpt: Experimental Example 4: Effect of the Compound on the Proliferation Effect of BaF3/TEL-AXL Cells
Based on the above-mentioned enzyme activity research results, we further explored the effect of the compound on cell proliferation mediated by receptor tyrosine kinase AXL.

The target in assay [3] is receptor tyrosine kinase c-Met (Homo sapiens, UniProt P08581). The assay can be described thus: In vitro c-Met kinase inhibitory activity. Format: biochemical. To be noted: two values per compound; for inhibition at 0.01 µM / inhibition at 0.1 µM: read-out: c-Met Inhibitory rate (%). The source says:
Experimental Example 3: Study of In Vitro c-Met Kinase Inhibitory Activity
Since the screening results of 369 kinase profiles of compound DC621044 has shown that the compound has a certain inhibitory activity on c-Met. We further screened some compounds for their inhibitory activity on c-Met kinase.

Sequence of receptor tyrosine kinase c-Met (P08581 25-1390): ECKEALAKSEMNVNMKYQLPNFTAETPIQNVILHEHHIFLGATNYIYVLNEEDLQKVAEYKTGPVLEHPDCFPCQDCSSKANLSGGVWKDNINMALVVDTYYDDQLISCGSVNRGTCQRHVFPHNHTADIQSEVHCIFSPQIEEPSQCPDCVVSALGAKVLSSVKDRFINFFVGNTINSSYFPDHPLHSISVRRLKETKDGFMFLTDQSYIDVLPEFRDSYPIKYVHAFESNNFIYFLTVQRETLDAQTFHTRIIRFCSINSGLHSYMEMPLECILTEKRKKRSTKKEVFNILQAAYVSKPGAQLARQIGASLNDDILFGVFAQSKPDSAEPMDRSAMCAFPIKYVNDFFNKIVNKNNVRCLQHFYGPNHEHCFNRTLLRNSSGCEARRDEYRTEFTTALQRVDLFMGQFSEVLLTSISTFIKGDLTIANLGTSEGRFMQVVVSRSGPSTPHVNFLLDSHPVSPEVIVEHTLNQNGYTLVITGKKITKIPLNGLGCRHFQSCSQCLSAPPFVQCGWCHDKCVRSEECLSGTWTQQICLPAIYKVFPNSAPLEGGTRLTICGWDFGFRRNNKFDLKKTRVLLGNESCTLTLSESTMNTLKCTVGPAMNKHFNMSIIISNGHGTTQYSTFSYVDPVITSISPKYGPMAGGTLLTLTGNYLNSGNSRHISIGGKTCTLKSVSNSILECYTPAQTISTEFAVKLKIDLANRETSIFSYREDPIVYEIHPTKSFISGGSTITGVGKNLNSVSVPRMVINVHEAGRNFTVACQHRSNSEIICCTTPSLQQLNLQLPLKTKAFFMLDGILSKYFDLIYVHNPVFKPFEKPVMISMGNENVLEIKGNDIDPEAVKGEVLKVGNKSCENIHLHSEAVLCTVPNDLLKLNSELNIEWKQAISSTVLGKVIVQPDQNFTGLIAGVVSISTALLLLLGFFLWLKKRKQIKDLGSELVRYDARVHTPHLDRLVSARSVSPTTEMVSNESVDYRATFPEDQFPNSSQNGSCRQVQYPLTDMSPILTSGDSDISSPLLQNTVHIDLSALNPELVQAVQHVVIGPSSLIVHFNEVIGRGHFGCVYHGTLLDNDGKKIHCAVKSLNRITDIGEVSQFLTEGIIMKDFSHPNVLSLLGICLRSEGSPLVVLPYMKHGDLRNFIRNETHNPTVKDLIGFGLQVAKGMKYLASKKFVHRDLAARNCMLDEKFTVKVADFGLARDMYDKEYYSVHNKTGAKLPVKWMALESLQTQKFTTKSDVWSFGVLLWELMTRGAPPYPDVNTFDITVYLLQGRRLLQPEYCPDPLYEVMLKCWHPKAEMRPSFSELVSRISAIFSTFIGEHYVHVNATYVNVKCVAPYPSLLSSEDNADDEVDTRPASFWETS

Consider `COc1nc(OC)nc(Oc2ccc(NC(=O)c3c4n(n(-c5ccccc5)c3=O)CCCC4)cc2)n1` [DC621003, N-(4-((4,6-dimethoxy-1,3,5-triazine-2-yl)oxy)phenyl)-2-oxo-1-phenyl-1,2,4,5,6,7-hexahydro[1,5-a]pyridine-3-formamide, reference compound], for which, in assay [1], the inhibition at 0.01 µM was -15.5%, the inhibition at 0.1 µM came out at 2.8%, the inhibition at 1 µM was -7.2% and the “AXL activity (in words)” value is reported as “almost no activity”.
As for `Cc1nccc(Oc2ccc(NC(=O)c3c4n(n(-c5ccccc5)c3=O)CCCC4)cc2)n1` [DC621005, N-(4-((2-methylpyrimidine-4-yl)oxy)phenyl)-2-oxo-1-phenyl-1,2,4,5,6,7-hexahydro[1,5-a]pyridine-3-formamide, reference compound], in assay [1], the inhibition at 0.01 µM was -14.6%, the inhibition at 0.1 µM came out at 18.3%, the inhibition at 1 µM was -7.8% and the “AXL activity (in words)” value is “almost no activity”.
Turning to `COc1cc2ncnc(Oc3ccc(NC(=O)c4c5n(n(-c6cc(F)ccc6F)c4=O)CCCC5)c(F)c3)c2cc1OC` [DC621053, 1-(2,5-difluorophenyl)-N-(4-((6,7-dimethoxyquinazoline-4-yl)oxy)-2-fluorophenyl)-2-oxo-1,2,4,5,6,7-hexahydropyrazolo[1,5-a]pyridine-3-formamide], the “BaF3/TEL-AXL proliferation Inhibitory rate (%)” value in assay [2] (1 nM, 0.001 µM) was 56.7%; in assay [2] (10 nM, 0.01 µM), 71.6%; in assay [2] (100 nM, 0.1 µM) it was 84.2%. In assay [2] (1 nM), the inhibition at 0.001 µM was 65.3%. Further, the inhibition at 0.01 µM in assay [2] (10 nM) stood at 67.5%; in assay [3] (10 nM), 50.9%. For the same compound, the inhibition at 0.1 µM in assay [2] (100 nM) turned out to be 83.8%; in assay [3] (100 nM) it was 92.8%. Also, the “c-Met Inhibitory rate (%)” value in assay [3] (10 nM, 0.01 µM) was 68.5%; in assay [3] (100 nM, 0.1 µM), 98.7%.
For `COc1cc2ncnc(Oc3ccc(NC(=O)c4c5n(n(-c6ccccc6F)c4=O)CCCC5)c(F)c3)c2cc1OC` [DC621056, N-(4-((6,7-dimethoxyquinazoline-4-yl)oxy)-2-fluorophenyl)-1-(2-fluorophenyl)-2-oxo-1,2,4,5,6,7-hexahydropyrazolo[1,5-a]pyridine-3-formamide], the “BaF3/TEL-AXL proliferation Inhibitory rate (%)” value in assay [2] (1 nM, 0.001 µM) is reported as 58.8%; in assay [2] (10 nM, 0.01 µM), 74.1%; in assay [2] (100 nM, 0.1 µM), 84.9%. In addition, in assay [2] (1 nM), the inhibition at 0.001 µM amounted to 45.3%. Besides, the inhibition at 0.01 µM in assay [2] (10 nM) was 70%. Further, the inhibition at 0.1 µM in assay [2] (100 nM) is 86.6%; in assay [3] (100 nM) it was 92%. For the same compound, the “c-Met Inhibitory rate (%)” value in assay [3] (10 nM, 0.01 µM) is 72.8% and 49.8%; in assay [3] (100 nM, 0.1 µM), 94.1%.
On to `O=C(Nc1ccc(Oc2ncnc3cc4c(cc23)OCCOCCOCCO4)c(F)c1)c1c2n(n(-c3ccccc3)c1=O)CCCC2` [DC621061, N-(3-fluoro-4-((7,8,10,11,13,14-hexahydro-[1,4,7,10]tetraoxacyclododecane [2,3-g]quinazolin-4-yl)oxy)phenyl)-2-oxo-1-phenyl-1,2,4,5,6,7-hexahydropyrazolo[1,5-a]pyridine-3-formamide], for which, in assay [1], the inhibition at 0.001 µM is 22.9%. The inhibition at 0.01 µM stood at 66.7% in assay [1] and 51.1% in assay [3] (10 nM). Further, the inhibition at 0.1 µM was determined as 91.8% in assay [1] and 94.7% in assay [3] (100 nM). Also, the “c-Met Inhibitory rate (%)” value in assay [3] (1 nM, 0.001 µM) was 35.7% and 61.1%; in assay [3] (10 nM, 0.01 µM) it was 62.4%; in assay [3] (100 nM, 0.1 µM) it was 95.7%.
In the case of `O=C(Nc1ccc(Oc2ncnc3cc4c(cc23)OCCOCCOCCO4)c(Cl)c1)c1c2n(n(-c3ccccc3)c1=O)CCCC2` [DC621062, N-(3-chloro-4-((7,8,10,11,13,14-hexahydro-[1,4,7,10]tetraoxacyclododecane [2,3-g]quinazolin-4-yl)oxy)phenyl)-2-oxo-1-phenyl-1,2,4,5,6,7-hexahydropyrazolo[1,5-a]pyridine-3-formamide], the inhibition at 0.001 µM in assay [1] came out at 6.3%. Also, in assay [1], the inhibition at 0.01 µM came out at 43%. Further, the inhibition at 0.1 µM in assay [1] was found to be 70.6%; in assay [3] (100 nM), 99.8%. Also, the “c-Met Inhibitory rate (%)” value in assay [3] (1 nM, 0.001 µM) was 35.9% and 68.6%; in assay [3] (10 nM, 0.01 µM), 78.1% and 98.9%; in assay [3] (100 nM, 0.1 µM) it was 100%.
With `O=C(Nc1ccc(Oc2ncnc3cc4c(cc23)OCCOCCOCCO4)c(Cl)c1)c1c2n(n(-c3cc(F)ccc3F)c1=O)CCCC2` [DC621064, 1-(2,5-difluorophenyl)-N-(3-chloro-4-((7,8,10,11,13,14-hexahydro-[1,4,7,10]tetraoxacyclododecane [2,3-g]quinazolin-4-yl)oxy)phenyl)-2-oxo-1,2,4,5,6,7-hexahydropyrazolo[1,5-a]pyridine-3-formamide], in assay [1], the inhibition at 0.001 µM worked out at 30.8%, the inhibition at 0.01 µM worked out at 47.4% and the inhibition at 0.1 µM is 83.4%.
On the same counts, the results for `O=C(Nc1ccc(Oc2ncnc3cc4c(cc23)OCCOCCOCCO4)c(F)c1)c1c2n(n(-c3ccccc3F)c1=O)CCCC2` [DC621065, N-(3-fluoro-4-((7,8,10,11,13,14-hexahydro-[1,4,7,10]tetraoxacyclododecane [2,3-g]quinazolin-4-yl)oxy)phenyl)-1-(2-fluorophenyl)-2-oxo-1,2,4,5,6,7-hexahydropyrazolo[1,5-a]pyridine-3-formamide] are 29.6%, 45.8% and 95%.
Turning to `COCCOc1cc2ncnc(Oc3ccc(NC(=O)c4c5n(n(-c6ccccc6)c4=O)CCCC5)cc3Cl)c2cc1OCCOC` [DC621070, N-(4-((6,7-bis(2-methoxyethoxy)quinazolin-4-yl)oxy)-3-chlorophenyl)-2-oxo-1-phenyl-1,2,4,5,6,7-hexahydropyrazolo[1,5-a]pyridine-3-formamide], in assay [1], the inhibition at 0.001 µM was determined as 2.4%, the inhibition at 0.01 µM stood at 60.5% and the inhibition at 0.1 µM was 91.1%.
For `COc1cc2ncnc(Oc3ccc(NC(=O)c4c5n(n(-c6cc(F)ccc6F)c4=O)CCCC5)cc3C(F)(F)F)c2cc1OC` [DC621081, 1-(2,5-difluorophenyl)-N-(4-((6,7-dimethoxyquinazoline-4-yl)oxy)-3-trifluoromethylphenyl)-2-oxo-1,2,4,5,6,7-hexahydropyrazolo[1,5-a]pyridine-3-formamide], in assay [1], the inhibition at 0.001 µM was 16.3%, the inhibition at 0.01 µM came to 34.9% and the inhibition at 0.1 µM is 79.2%.
Turning to `COCCOc1cc2ncnc(Oc3ccc(NC(=O)c4c5n(n(-c6ccccc6F)c4=O)CCCC5)cc3Cl)c2cc1OCCOC` [DC621090, N-(4-((6,7-bis(2-methoxyethoxy)quinazolin-4-yl)oxy)-3-chlorophenyl)-1-(2-fluorophenyl)-2-oxo-1,2,4,5,6,7-hexahydropyrazolo[1,5-a]pyridine-3-formamide], in assay [1], the inhibition at 0.001 µM amounted to 21.1%, the inhibition at 0.01 µM was 62.9% and the inhibition at 0.1 µM is 92.7%.
